Test results as given in publication PMC11439058, “Exploiting the bile acid binding protein as transporter of a Cholic Acid/Mirin bioconjugate for potential applications in liver cancer therapy” (Scientific Reports, 2024).
Where “and” joins values, the source holds several entries; their conditions need not be identical. Equal values may be shown once. Read-outs that look alike come from different tables or passages of the source.

Columns and labels:
[1] = HepG2 cytotoxicity, Neutral Red Uptake; assay type: cell-based, Human; conditions: human
Description: (§1) Cell cultures and cytotoxicity assay. To evaluate the in vitro cytotoxicity of the test samples, the direct contact tests, proposed by ISO […], Biological evaluation of medical devices – Part 5: Tests for cytotoxicity: in vitro methods were used[71]. This test is suitable for sample with various shapes, sizes, or physical status (i.e. liquid or solid).
(§2) Evaluation of HepG2 viability. Cells were maintained in DMEM at 37 °C in a humidified atmosphere containing 5% CO2. The culture medium was supplemented with 10% fetal calf serum (FCS), 1% L-glutamine-penicillin-streptomycin solution, and 1% MEM Non-Essential Amino Acid Solution. Once at confluence, cells were washed with PBS 0.1 M, taken up with trypsin-EDTA solution and then centrifuged at 1000 rpm for 5 min. The pellet was re-suspended in medium solution (dilution 1:15).
(§3) The stock solutions of Mirin, Doxorubicin, and CA-M11 were prepared in DMSO. The following concentrations of Mirin and CA-M11 were tested: 5; 10; 20; 30; 40; 50; 60; 70; 80; 90 and 100 µM. […] Then, the experiments were repeated adding to Doxorubicin concentrations ranging from 0.3 to 6.0 µM, respectively, Mirin 5 µM, and CA-M11 5 µM. […] Each experiment was repeated 3 times, and all samples were set up in six replicates. A complete medium was used as negative control. […] At the end of the incubation, the routine culture medium was removed from each well, and cells were carefully rinsed with 1 mL of pre-warmed D-PBS. Multiwells were then gently blotted with paper towels. […] The cells were checked during the NR incubation for NR crystal formation. After incubation, the NR Medium was removed, cells were carefully rinsed with 1 mL of pre-warmed D-PBS. Then, the PBS was decanted and blotted from the wells and exactly 1 mL of NR Desorb solution was added to each sample. […] During this step the samples were covered in order to protect them from light. After 5 min from the plate shaker removal the absorbance was read at 540 nm by a UV/visible spectrophotometer (UV5, Mettler Toledo).

[2] = PAMPA assay; assay type: in vitro ADME; conditions: 4 h, rt
Description: PAMPA assay. The DMSO stock solution of each compound was diluted 1:1 v/v with phosphate buffer (PBS 10 mM, pH 7.4) to obtain donor solutions. Each well of the filter plate was covered with a 1% w/v L-α-phosphatidylcholine solution (PC) in dodecane used to mimic the phospholipidic bilayer and then added with the donor. In the acceptor plate, a mixture solution of DMSO/PBS 1:1 v/v was placed, and the sandwich was incubated at rt for 4 h under gentle shaking. At the end time point, samples were taken from both the upper and the lower plates and analyzed using the UV/LC-MS method described above. Apparent permeability (Papp cm/s x 10^−6) and membrane retention (MR %) was calculated as previously reported.

[3] = Stability in DMEM cell culture medium
Description: (§4) Plasma Stability and stability in the cellular medium. A DMSO stock solution of tested compounds was incubated in the presence of human plasma ([…]) and HEPES buffer (25 mM, 140 mM NaCl, pH 7.4) or DMEM 10% FBS, (1% PS, and 1% Glu) at 37 °C under shaking. At selected time points (0, 0.083, 0.25, 0.5, 1, 2, 8, 24 h), samples were treated with cold ACN to stop reactions through protein denaturation, and centrifuged at 5000 rpm for 10 min. The supernatant was analyzed by UV/LC-MS to monitor the amount of unmodified compound. Data were calculated with Excel and plotted using GraphPad Prism 8.0 (GraphPad Software Inc., San Diego, CA, USA). The half-life value (t1/2) was calculated with the following formula: [drawing 2]

[4] = Plasma stability
Description: as §4

[5] = system: Salmonella typhimurium strain TA98; assay: Mutagenicity assay: Ames test, TA98; conditions: for concentration from which a mutagenic effect is shown: Salmonella typhimurium, 90 min
Description: (§5) Mutagenicity assay: Ames test. The TA100 and TA98 strains of Salmonella Typhimurium were utilized for mutagenicity assay. Approximately 107 bacteria were exposed to 6 concentrations of each test compound, as well as a positive and a negative control, for 90 min in a medium containing sufficient histidine to support approximately two cell divisions. After 90 min, the exposure cultures were diluted in pH indicator medium lacking histidine, and aliquoted into 48 wells of a 384-well plate. Within two days, cells which had undergone the reversion to His grew into colonies. Metabolism by the bacterial colonies reduced the pH of the medium, changing the color of that well. This color change can be detected visually or by a microplate reader. The number of wells containing revertant colonies were counted for each dose and compared to a zero-dose control. Each dose was tested in six replicates. The following concentrations of Mirin and CA-M11 were tested: 5; 10; 30; 50; 80 and 100 µM. The concentration values tested of Doxorubicin were: 0.3; 1.2; 1.8; 3.0; 6.0 and 30 µM. The experiments were then repeated adding to Doxorubicin concentrations ranging from 0.3 to 30 µM, respectively, Mirin 5 µM and CA-M11 5 µM.

[6] = system: Salmonella typhimurium strain TA100; assay: Mutagenicity assay: Ames test, TA100; conditions: for concentration from which a mutagenic effect is shown: Salmonella typhimurium, 90 min
Description: as §5

[7] = Extraction recovery from denatured microsomes (matrix effect); conditions: human, Recovery (% Rec, Time 0'), denatured human liver microsomes
Description: Therefore, matrix effects were investigated by preparing fresh time-zero solutions made of denatured microsomes, solvent mix and tested compounds. To have a better correlation with the time-zero of the metabolic stability experiments, final volumes and concentrations used were not modified.
Extraction Recovery % (% Rec) of CA-M11 and Mirin in human liver microsomes. Data are reported as the mean ± standard deviation (SD) of n=3 experiments run in triplicates.

[8] = Microsomal (metabolic) stability; assay type: in vitro ADME; conditions: human liver microsomes
Description: Microsomal stability. In the presence of phosphate buffer (PBS 10 mM, pH 7.4), human liver microsomes (HLM) (0.2 mg mL^−1), and a NADPH solution in MgCl2 48 mM, each DMSO compound solution was incubated at 37 °C for 1 h under shaking. Then, the metabolizing reactions were stopped by adding cold acetonitrile (ACN). After centrifuging and drying the reaction mixes under N2 flow, the quantitative analyses were performed using the UV/LC-MS method previously described. The percentages of the metabolized and unmetabolized compounds were calculated as previously described[73],[74].

[9] = system: HepG2 cells; assay: HepG2 cytotoxicity, Neutral Red Uptake; assay type: cell-based, Human
Description: as §1, §2, §3

[H]/N=C1/NC(=O)C(=Cc2ccc(O)cc2)S1 [Mirin, (Z)-5-(4-Hydroxybenzylidene)-2-iminothiazolidin-4-one]
IC50 at 24 h ([1]; HepG2, 24 h, Neutral Red Uptake, read-out: IC50 (cytotoxic effect)): 50 µM | Membrane retention MR (%) [2]: 1.16 ± 0.90% | half-life [3]: > 100 h | stability percentage in DMEM cell culture medium ([3]; DMEM 10% FBS, all time points up to 24 h): above 90% | DMEM cell culture medium stability (% ± SD) ([3]; DMEM 10% FBS, time 0 h): 104.19 ± 1.20% | DMEM cell culture medium stability (% ± SD) ([3]; DMEM 10% FBS, time 0.083 h): 106.18 ± 0.16% | DMEM cell culture medium stability (% ± SD) ([3]; DMEM 10% FBS, time 0.25 h): 107.78 ± 1.57% | DMEM cell culture medium stability (% ± SD) ([3]; DMEM 10% FBS, time 0.5 h): 103.73 ± 2.61% | DMEM cell culture medium stability (% ± SD) ([3]; DMEM 10% FBS, time 1 h): 104.88 ± 6.37% | DMEM cell culture medium stability (% ± SD) ([3]; DMEM 10% FBS, time 2 h): 98.81 ± 3.43% | DMEM cell culture medium stability (% ± SD) ([3]; DMEM 10% FBS, time 8 h): 97.14 ± 2.81% | DMEM cell culture medium stability (% ± SD) ([3]; DMEM 10% FBS, time 24 h): 91.14 ± 2.70% | half-life ([3]; buffer): 114 h | Plasma stability (% ± SD) ([4]; human plasma, time 0 h): 89.10 ± 1.03% | Plasma stability (% ± SD) ([4]; human plasma, time 0.083 h): 90.80 ± 0.13% | Plasma stability (% ± SD) ([4]; human plasma, time 0.25 h): 92.18 ± 1.34% | Plasma stability (% ± SD) ([4]; human plasma, time 0.5 h): 88.72 ± 3.98% | Plasma stability (% ± SD) ([4]; human plasma, time 1 h): 89.70 ± 2.23% | Plasma stability (% ± SD) ([4]; human plasma, time 2 h): 84.51 ± 2.93% | Plasma stability (% ± SD) ([4]; human plasma, time 8 h): 83.07 ± 2.40% | Plasma stability (% ± SD) ([4]; human plasma, time 24 h): 77.94% and 77.94 ± 2.30% | percentage of unmodified compound in plasma ([4]; human plasma, up to 8 h of incubation): ≥ 80% | effect on Doxorubicin mutagenicity ([5]; 5 µM compound + Doxorubicin 0.3 to 30 µM, TA98): not able to affect Doxorubicin mutagenicity | effect on Doxorubicin mutagenicity ([6]; 5 µM compound + Doxorubicin 0.3 to 30 µM, TA100): not able to affect Doxorubicin mutagenicity | recovery at 0 min [7]: 92.3 ± 1.92% | Metabolic stability (%) ([8]; time 0 min): 92.32 ± 1.93% | Metabolic stability (%) ([8]; time 60 min): 90.65 ± 0.83%

C[C@H](CCC(=O)Oc1ccc(/C=C2\SC(=N)NC2=O)cc1)[C@H]1CCC2C3C(C[C@H](O)[C@@]21C)[C@@]1(C)CC[C@@H](O)CC1C[C@H]3O (stereo partly drawn) [CA-M11, (4R)-4-((Z)-(2-Imino-4-oxothiazolidin-5-ylidene)methyl)phenyl 4-((3R,7R,10 S,12 S,13R,17R)-3,7,12-trihydroxy-10,13-dimethylhexadecahydro-1 H-cyclopenta[a]phenanthren-17-yl)pentanoate]
cytotoxic effect on HepG2 cells at 5 µM [9]: does not exert a significant cytotoxic effect | increase of cell death in combination with Doxorubicin ([9]; 5 µM compound + Doxorubicin 2.4 µM, HepG2, 24 h): roughly 40% | IC50 at 24 h [1]: 40 µM | Membrane retention MR (%) [2]: 2.26 ± 0.64% | DMEM cell culture medium stability (% ± SD) ([3]; 0 h): 93.96 ± 5.76% | DMEM cell culture medium stability (% ± SD) ([3]; 0.083 h): 91.94 ± 0.85% | DMEM cell culture medium stability (% ± SD) ([3]; 0.25 h): 94.24 ± 0.37% | DMEM cell culture medium stability (% ± SD) ([3]; 0.5 h): 94.77 ± 0.60% | DMEM cell culture medium stability (% ± SD) ([3]; 1 h): 92.08 ± 2.15% | DMEM cell culture medium stability (% ± SD) ([3]; 2 h): 82.83 ± 3.38% | half-life ([3]; buffer): 21.7 h | Plasma stability (% ± SD) ([4]; human, 0 h, pH 7.4): 72.79 ± 2.57% | Plasma stability (% ± SD) ([4]; human, 0.083 h, pH 7.4): 74.01 ± 0.65% | Plasma stability (% ± SD) ([4]; human, 0.25 h, pH 7.4): 72.29 ± 3.22% | Plasma stability (% ± SD) ([4]; human, 0.5 h, pH 7.4): 75.47 ± 0.04% | compound hydrolyzed by plasmatic esterases ([4]; human, pH 7.4): Approximately 30% | half-life ([4]; human, plasma, pH 7.4, t 1/2 (half-life) in plasma): ~18 h | concentration from which a mutagenic effect is shown [5]: ≥ 10 µM | concentration from which a mutagenic effect is shown [6]: ≥ 10 µM | recovery at 0 min [7]: < 70%

COc1cccc2c1C(=O)c1c(O)c3c(c(O)c1C2=O)C[C@@](O)(C(=O)CO)C[C@@H]3O[C@H]1C[C@H](N)[C@H](O)[C@H](C)O1 [Doxorubicin]
viability at 24 h, 0.3 µM ([1]; HepG2 cells, Doxorubicin 0.3 µM, 24 h, read-out: Percentage of viable HepG2 cells): 84.7% | viability at 24 h, 0.6 µM ([1]; HepG2 cells, Doxorubicin 0.6 µM, 24 h, read-out: Percentage of viable HepG2 cells): 73.4% | viability at 24 h, 1.2 µM ([1]; HepG2 cells, Doxorubicin 1.2 µM, 24 h, read-out: Percentage of viable HepG2 cells): 65% | viability at 24 h, 1.8 µM ([1]; HepG2 cells, Doxorubicin 1.8 µM, 24 h, read-out: Percentage of viable HepG2 cells): 49.9% | viability at 24 h, 2.4 µM ([1]; HepG2 cells, Doxorubicin 2.4 µM, 24 h, read-out: Percentage of viable HepG2 cells): 38.4% | viability at 24 h, 3 µM ([1]; HepG2 cells, Doxorubicin 3.0 µM, 24 h, read-out: Percentage of viable HepG2 cells): 28.3% | viability at 24 h, 6 µM ([1]; HepG2 cells, Doxorubicin 6.0 µM, 24 h, read-out: Percentage of viable HepG2 cells): 18.9% | viability at 24 h, 12 µM ([1]; HepG2 cells, Doxorubicin 12.0 µM, 24 h, read-out: Percentage of viable HepG2 cells): 5.8% | IC50 at 24 h ([1]; HepG2 cells, HepG2, 24 h, Neutral Red Uptake, read-out: IC50 (cytotoxic effect)): 1.8 µM | concentration from which a mutagenic effect is shown [5]: ≥ 10 µM | concentration from which a mutagenic effect is shown [6]: ≥ 10 µM
